# In ChEMBL document CHEMBL1201862, “PubChem BioAssay data set” (2004):
#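 96-well plates; 48 h exposure; 5 concentrations. Endpoints by linear interpolation between flanking doses. Not reached: highest tested concentration assigned. Here, GI50 denotes the concentration required for 50% inhibition of growth.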 The source made the active and inactive calls. Cut-off read from the data, not from the text of the source: active = GI50 up to about 1.1 µM and inactive = higher.
# How the values were obtained:
# Experiment in all cases: NCI tumour cell line growth inhibition, 48 h
# 786-0 = test system: 786-0
# A498 = test system: A498
# A549 = test system: A549
# ACHN = test system: ACHN
# CCRF-CEM = test system: CCRF-CEM
# COLO 205 = test system: COLO 205
# DU-145 = test system: DU-145
# EKVX = test system: EKVX
# HCC 2998 = test system: HCC 2998
# HCT-116 = test system: HCT-116
# HCT-15 = test system: HCT-15
# HL-60 = test system: HL-60
# HOP-62 = test system: HOP-62
# HT-29 = test system: HT-29
# Hs-578T = test system: Hs-578T
# IGROV-1 = test system: IGROV-1
# K562 = test system: K562
# KM12 = test system: KM12
# LOX IMVI = test system: LOX IMVI
# M14 = test system: M14
# MDA-MB-231 = test system: MDA-MB-231
# MDA-MB-435 = test system: MDA-MB-435
# MDA-N = test system: MDA-N
# MOLT-4 = test system: MOLT-4
# Malme-3M = test system: Malme-3M
# NCI-H226 = test system: NCI-H226
# NCI-H23 = test system: NCI-H23
# NCI-H460 = test system: NCI-H460
# NCI-H522 = test system: NCI-H522
# NCI/ADR-RES = test system: NCI/ADR-RES
# OVCAR-3 = test system: OVCAR-3
# OVCAR-4 = test system: OVCAR-4
# OVCAR-5 = test system: OVCAR-5
# OVCAR-8 = test system: OVCAR-8
# PC-3 = test system: PC-3
# RPMI-8226 = test system: RPMI-8226
# RXF 393 = test system: RXF 393
# SF-268 = test system: SF-268
# SF-295 = test system: SF-295
# SF-539 = test system: SF-539
# SK-MEL-28 = test system: SK-MEL-28
# SK-MEL-2 = test system: SK-MEL-2
# SK-MEL-5 = test system: SK-MEL-5
# SK-OV-3 = test system: SK-OV-3
# SN12C = test system: SN12C
# SNB-19 = test system: SNB-19
# SNB-75 = test system: SNB-75
# SR = test system: SR
# SW-620 = test system: SW-620
# T47D = test system: T47D
# TK-10 = test system: TK-10
# UACC-257 = test system: UACC-257
# UACC-62 = test system: UACC-62
# UO-31 = test system: UO-31
structure (smiles),measurement,setting,value
COC(=O)c1c(C(=O)OC)c2ccccn2c1-c1cc(OC)c(Br)c(=O)o1,GI50,786-0,> 100 µM (inactive)
same,GI50,A498,> 100 µM (inactive)
same,GI50,A549,> 100 µM (inactive)
same,GI50,ACHN,> 100 µM (inactive)
same,GI50,CCRF-CEM,> 100 µM (inactive)
same,GI50,COLO 205,> 100 µM (inactive)
same,GI50,DU-145,> 100 µM (inactive)
same,GI50,EKVX,> 100 µM (inactive)
same,GI50,HCC 2998,> 100 µM (inactive)
same,GI50,HCT-116,> 100 µM (inactive)
same,GI50,HCT-15,> 100 µM
same,GI50,HL-60,> 100 µM (inactive)
same,GI50,HOP-62,> 100 µM (inactive)
same,GI50,HT-29,> 100 µM (inactive)
same,GI50,Hs-578T,37.2 µM (inactive)
same,GI50,IGROV-1,> 100 µM (inactive)
same,GI50,K562,> 100 µM (inactive)
same,GI50,KM12,> 100 µM (inactive)
same,GI50,LOX IMVI,> 100 µM (inactive)
same,GI50,M14,> 100 µM (inactive)
same,GI50,MDA-MB-231,83.8 µM (inactive)
same,GI50,MDA-MB-435,> 100 µM (inactive)
same,GI50,MDA-N,> 100 µM (inactive)
same,GI50,MOLT-4,> 100 µM (inactive)
same,GI50,Malme-3M,> 100 µM (inactive)
same,GI50,NCI-H226,> 100 µM (inactive)
same,GI50,NCI-H23,> 100 µM (inactive)
same,GI50,NCI-H460,> 100 µM (inactive)
same,GI50,NCI-H522,68.7 µM (inactive)
same,GI50,NCI/ADR-RES,> 100 µM (inactive)
same,GI50,OVCAR-3,> 100 µM (inactive)
same,GI50,OVCAR-4,> 100 µM (inactive)
same,GI50,OVCAR-5,> 100 µM (inactive)
same,GI50,OVCAR-8,> 100 µM (inactive)
same,GI50,PC-3,> 100 µM (inactive)
same,GI50,RPMI-8226,> 100 µM (inactive)
same,GI50,RXF 393,> 100 µM (inactive)
same,GI50,SF-268,> 100 µM (inactive)
same,GI50,SF-295,> 100 µM (inactive)
same,GI50,SF-539,56.8 µM (inactive)
same,GI50,SK-MEL-28,> 100 µM (inactive)
same,GI50,SK-MEL-2,> 100 µM (inactive)
same,GI50,SK-MEL-5,> 100 µM (inactive)
same,GI50,SK-OV-3,> 100 µM (inactive)
same,GI50,SN12C,> 100 µM (inactive)
same,GI50,SNB-19,> 100 µM (inactive)
same,GI50,SNB-75,15.1 µM (inactive)
same,GI50,SR,> 100 µM (inactive)
same,GI50,SW-620,> 100 µM (inactive)
same,GI50,T47D,> 100 µM (inactive)
same,GI50,TK-10,> 100 µM (inactive)
same,GI50,UACC-257,> 100 µM (inactive)
same,GI50,UACC-62,> 100 µM (inactive)
same,GI50,UO-31,> 100 µM (inactive)
